According to PMC5113775, “Mirror‐Image Packing Provides a Molecular Basis for the Nanomolar Equipotency of Enantiomers of an Experimental Herbicide” (Angewandte Chemie (International Ed. in English), 2016):

Tests used:
[1] = molecular target: T1, At ΔN IGPD2 construct A (Arabidopsis thaliana, UniProt O23346); experiment: crystal structure, […] Å; type: binding; details: active site, two manganese ions; racemate
T1 construct: gene HISN5B; N-terminally truncated (delta-N) construct A, longer than construct B; borders only in supplement

[2] = molecular target: T2, At ΔN IGPD2 construct B (Arabidopsis thaliana, UniProt O23346); experiment: in vitro enzyme inhibition assay; crystal structure; type: biochemical
T2 construct: gene HISN5B; N-terminally truncated (delta-N) construct B, shorter than construct A; borders only in supplement; Mn2+ enzyme; EC 4.2.1.19
T2 sequence (O23346 69-272, stated change not applied): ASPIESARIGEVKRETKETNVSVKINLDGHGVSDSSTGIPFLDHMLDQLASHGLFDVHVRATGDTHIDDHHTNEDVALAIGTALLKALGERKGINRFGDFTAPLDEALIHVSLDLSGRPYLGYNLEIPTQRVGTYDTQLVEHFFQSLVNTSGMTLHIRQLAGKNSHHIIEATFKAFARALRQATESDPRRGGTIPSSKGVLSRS

T1 sequence (O23346 53-272, stated change not applied): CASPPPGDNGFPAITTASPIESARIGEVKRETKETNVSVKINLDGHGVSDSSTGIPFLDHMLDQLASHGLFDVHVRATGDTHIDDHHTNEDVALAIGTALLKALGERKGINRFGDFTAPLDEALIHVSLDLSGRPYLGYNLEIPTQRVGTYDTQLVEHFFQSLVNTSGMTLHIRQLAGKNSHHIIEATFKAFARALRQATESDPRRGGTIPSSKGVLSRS

Structure (SMILES)	crystal structure, 1.85 Å [1]	Ki [2] [µM]
O=P(O)(O)CC(O)Cn1cncn1 (racemic) [C348, 2‐hydroxy‐3‐(1,2,4‐triazol‐1‐yl) propylphosphonate]	grown in the presence of a racemate of C348 and the structure	
O=P(O)(O)C[C@H](O)Cn1cncn1 [(R)‐C348, 2‐hydroxy‐3‐(1,2,4‐triazol‐1‐yl) propylphosphonate]		0.015 ± 0.005
O=P(O)(O)C[C@@H](O)Cn1cncn1 [(S)‐C348, 2‐hydroxy‐3‐(1,2,4‐triazol‐1‐yl) propylphosphonate]		0.025 ± 0.003
